± gives the expanded uncertainty stated by the source.
Assay: xn = mol fraction of the nth substance listed
Conditions: 304.21 K, Fluid (supercritical or subcritical phases), Vibrating tube method, x1 = 0.97

O=C=O [carbon dioxide] + CO
Conditions | mass density [kg/m3]
16700 kPa | 863.76 ± 0.82
16725 kPa | 864.02 ± 0.82
16750 kPa | 864.2 ± 0.82
16775 kPa | 864.47 ± 0.82
16800 kPa | 864.63 ± 0.82
16825 kPa | 864.86 ± 0.82
16850 kPa | 865.05 ± 0.82
16875 kPa | 865.26 ± 0.82
16900 kPa | 865.51 ± 0.82
16925 kPa | 865.7 ± 0.82
16950 kPa | 865.9 ± 0.82
16975 kPa | 866.12 ± 0.82
17000 kPa | 866.34 ± 0.82
17025 kPa | 866.56 ± 0.82
17050 kPa | 866.78 ± 0.82
17075 kPa | 866.99 ± 0.82
17100 kPa | 867.2 ± 0.82
17125 kPa | 867.4 ± 0.82
17150 kPa | 867.63 ± 0.82
17175 kPa | 867.77 ± 0.82
17200 kPa | 867.99 ± 0.82
17225 kPa | 868.2 ± 0.82
17250 kPa | 868.43 ± 0.82
17275 kPa | 868.66 ± 0.82
17300 kPa | 868.87 ± 0.82
17325 kPa | 869.01 ± 0.82
17350 kPa | 869.28 ± 0.82
17375 kPa | 869.42 ± 0.82
17400 kPa | 869.69 ± 0.82
17425 kPa | 869.89 ± 0.82
17450 kPa | 870.09 ± 0.82
17475 kPa | 870.29 ± 0.82
17500 kPa | 870.48 ± 0.82
17525 kPa | 870.66 ± 0.82
17550 kPa | 870.86 ± 0.81
17575 kPa | 871.06 ± 0.81
17600 kPa | 871.23 ± 0.81
17625 kPa | 871.44 ± 0.81
17650 kPa | 871.68 ± 0.81
17675 kPa | 871.84 ± 0.81
17700 kPa | 872.08 ± 0.81
17725 kPa | 872.29 ± 0.81
17750 kPa | 872.45 ± 0.81
17775 kPa | 872.68 ± 0.81
17800 kPa | 872.83 ± 0.81
17825 kPa | 873.02 ± 0.81
17850 kPa | 873.25 ± 0.81
17875 kPa | 873.48 ± 0.81
17900 kPa | 873.63 ± 0.81
17925 kPa | 873.87 ± 0.81
17950 kPa | 874.01 ± 0.81
17975 kPa | 874.23 ± 0.81
18000 kPa | 874.46 ± 0.81
18025 kPa | 874.62 ± 0.81
18050 kPa | 874.83 ± 0.81
18075 kPa | 875.05 ± 0.81
18100 kPa | 875.2 ± 0.81
18125 kPa | 875.42 ± 0.81
18150 kPa | 875.58 ± 0.81
18175 kPa | 875.78 ± 0.81
18200 kPa | 876 ± 0.81
18225 kPa | 876.22 ± 0.81
18250 kPa | 876.35 ± 0.81
18275 kPa | 876.56 ± 0.81
18300 kPa | 876.78 ± 0.81
18325 kPa | 876.99 ± 0.81
18350 kPa | 877.14 ± 0.81
18375 kPa | 877.36 ± 0.81
18400 kPa | 877.5 ± 0.81
18425 kPa | 877.73 ± 0.81
18450 kPa | 877.88 ± 0.81
18475 kPa | 878.11 ± 0.81
18500 kPa | 878.3 ± 0.81
18525 kPa | 878.46 ± 0.81
18550 kPa | 878.68 ± 0.81
18575 kPa | 878.87 ± 0.81
18600 kPa | 879.03 ± 0.81
18625 kPa | 879.24 ± 0.81
18650 kPa | 879.38 ± 0.81
18675 kPa | 879.61 ± 0.81
18700 kPa | 879.76 ± 0.81
18725 kPa | 879.99 ± 0.81
18750 kPa | 880.19 ± 0.81
18775 kPa | 880.38 ± 0.81
18800 kPa | 880.58 ± 0.81
18825 kPa | 880.78 ± 0.81
18850 kPa | 880.89 ± 0.81
18875 kPa | 881.09 ± 0.81
18900 kPa | 881.28 ± 0.81
18925 kPa | 881.49 ± 0.81
18950 kPa | 881.68 ± 0.81
18975 kPa | 881.88 ± 0.81
19000 kPa | 882.06 ± 0.81
19025 kPa | 882.19 ± 0.81
19050 kPa | 882.43 ± 0.81
19075 kPa | 882.62 ± 0.81
19100 kPa | 882.73 ± 0.81
19125 kPa | 882.92 ± 0.81
19150 kPa | 883.11 ± 0.81
19175 kPa | 883.3 ± 0.81
19200 kPa | 883.48 ± 0.81
19225 kPa | 883.65 ± 0.81
19250 kPa | 883.86 ± 0.81
19275 kPa | 884.07 ± 0.81
19300 kPa | 884.25 ± 0.81
19325 kPa | 884.43 ± 0.81
19350 kPa | 884.6 ± 0.81
19375 kPa | 884.78 ± 0.81
19400 kPa | 884.95 ± 0.81
19425 kPa | 885.12 ± 0.81
19450 kPa | 885.28 ± 0.81
19475 kPa | 885.46 ± 0.81
19500 kPa | 885.62 ± 0.81
19525 kPa | 885.78 ± 0.81
19550 kPa | 886.04 ± 0.81
19575 kPa | 886.21 ± 0.81
19600 kPa | 886.37 ± 0.81
19625 kPa | 886.54 ± 0.81
19650 kPa | 886.76 ± 0.81
19675 kPa | 886.92 ± 0.81
19700 kPa | 887.09 ± 0.81
19725 kPa | 887.24 ± 0.81
